Broadly, the CC50 is the concentration giving 50% cytotoxicity. The low end stands for greater toxicity to the cells, the high end for lower toxicity to the cells. By LD50 is commonly meant the dose expected to kill half of the subjects tested.

The record followed here is US4537899A, “Antiviral acylated 1,2,4-triazole derivatives” (BIOGAL Gyogyszergyar, priority 1982, dated 1985).

Data set [1] in a line: in vitro. The data set is classed as cell-based. As to the method:
The antiviral testing of the compounds was carried out in two steps. First the dose-response curve of cytotoxicity was plotted, then the antiviral activity was assayed in cell cultures containing nontoxic amounts of the compound.
1. The cytotoxicity of the compounds was assayed in HeLa and RK-13 cell cultures by quantitating the protein content of the cells [S. Horvath: Cytotoxicity of drugs and diverse chemical agents to cell cultures, Toxicology, 16, 59 (1980)]. From the data of the dose-response curve the 50 percent cytotoxic concentration of the compounds was determined (CT50), i.e. the concentration inhibiting cell proliferation by 50 percent. Similarly from the data of the dose-response curve the highest concentration of the compounds where cell proliferation compared to the control is not inhibited at all, can be determined, too (0 percent cytotoxic concentration, CT0). To simplify matters, in the Table the logarithm of these values is summarized (i.e. log CT0 =1 representing a concentration of 10 μg/ml).

Data set [2] in a line: Oral toxicity (LD50) in rats. The note with it: rat, in vivo.
The subject of data set [3] is Rubeola virus. Kind of data set: Antiviral effect against Rubeola virus at concentrations of CT0 (reduction of TCID50 virus titer). The data set is classed as cell-based, Rubeola virus (strain Judith). The note with it: RK-13 cell cultures, log TCID50 difference of control and test compound.

Values after ≈ are worked out from the molar mass of the structure shown.

For `CSc1n[nH]c(NC(=O)c2ccccc2C)n1` [Example 47, 3-methylthio-5-(2-methyl-benzoyl-amino)-1H-1,2,4-triazole], in data set [1] (human, hela cells), the CC50 was 100 µg/mL (≈ 403 µM) and the MNTC is 39.8 µg/mL. In data set [1] (rabbit, rk-13 cells), it took 79.4 µg/mL (≈ 320 µM) to reach half-maximal cytotoxicity (CC50) and the MNTC was 12.6 µg/mL. Moreover, the median lethal dose (LD50) in data set [2] is 3200 mg/kg. Besides, the “Δlog TCID50” value in data set [3] is given as ≥ 6.8.

On to `CSc1n[nH]c(NC(=O)c2ccccc2Br)n1` [Example 53, 3-methylthio-5-(2-bromo-benzoyl-amino)-1H-1,2,4-triazole], for which, in data set [1] (human, hela cells), the cytotoxic concentration (CC50) was 126 µg/mL (≈ 402 µM) and the MNTC was 39.8 µg/mL. In addition, in data set [1] (rabbit, rk-13 cells), the midpoint of cytotoxicity, the CC50, lay at 79.4 µg/mL (≈ 254 µM) and the MNTC was 25.1 µg/mL. In data set [3], the “Δlog TCID50” value is on record as ≥ 6.8.

As to `CSc1n[nH]c(NC(=O)c2ccccc2[N+](=O)[O-])n1` [Example 61, 3-methylthio-5-(2-nitro-benzoyl-amino)-1H-1,2,4-triazole], the CC50 is 39.8 µg/mL (≈ 143 µM) in data set [1] (human, hela cells) and 63.1 µg/mL (≈ 226 µM) in data set [1] (rabbit, rk-13 cells). Further, the MNTC in data set [1] (human, hela cells) was 10 µg/mL; in data set [1] (rabbit, rk-13 cells) it was 15.8 µg/mL. In addition, the “Δlog TCID50” value in data set [3] was 3.0.

In data set [1] (human, hela cells), `CSc1n[nH]c(NC(=O)c2ccccc2Cl)n1` [Example 63, 3-methylthio-5-(2-chloro-benzoyl-amino)-1H-1,2,4-triazole] gave a CC50 of 50.1 µg/mL (≈ 187 µM) and an MNTC of 7.94 µg/mL. In data set [1] (rabbit, rk-13 cells), this compound had a CC50 of 79.4 µg/mL (≈ 296 µM) and an MNTC of 15.8 µg/mL. Moreover, the “Δlog TCID50” value in data set [3] was ≥ 5.3.

For the compound `CSc1n[nH]c(NC(=O)c2ccccc2SC)n1` [Example 70, 3-methylthio-5-(2-methylthio-benzoyl-amino)-1H-1,2,4-triazole], the CC50 in data set [1] (human, hela cells) was 79.4 µg/mL (≈ 283 µM); in data set [1] (rabbit, rk-13 cells) it was 50.1 µg/mL (≈ 179 µM). Further, the MNTC in data set [1] (human, hela cells) was 20 µg/mL; in data set [1] (rabbit, rk-13 cells), 15.8 µg/mL. For the same compound, the “Δlog TCID50” value in data set [3] was ≥ 5.3.

In data set [1] (human, hela cells), `CCSc1n[nH]c(NC(=O)c2ccccc2C)n1` [Example 73, 3-ethylthio-5-(2-methyl-benzoyl-amino)-1H-1,2,4-triazole] had a half-maximal cytotoxic concentration (CC50) of 50.1 µg/mL (≈ 191 µM) and an MNTC of 7.94 µg/mL. Further, the “Δlog TCID50” value in data set [3] was ≥ 6.0.
